Each structure is given as a SMILES string.

The test system of assay [1] is mature apple trees of the variety Jonagold, (mutant Jonagored). Nature of the assay: Yield increase with apple (fruit set and fruit size after spraying). The assay is classed as in vivo. As for the experimental part:
This experiment was performed on mature apple trees of the variety Jonagold, (mutant Jonagored). The sprayings were performed with an atomizer, each time applying an amount of 300 liter of water per hectare.
S-abscisic acid (ABA) was applied alone as well as in combination with glutamine. The applications were started around the end of flowering and were repeated every 10 to 14 days. ABA was first applied in two consecutive treatments, each time using a concentration of 3.3 ppm wt, and thus in a dosing of 1.0 g/ha. The composition with glutamine was applied until the end of the growing season, and with a concentration of 50 ppm wt, and thus in a dosing of 15 g/ha. ABA was also in this test applied only twice, on April 24 and May 7. The applications of glutamine were started around the end of flowering and were repeated every 7 to 14 days, depending on the weather conditions. In total there were 7 treatments, more precisely on April 24, May 7, May 14, May 20, June 9, June 16 and June 24. Immediately after the treatments, on June 25, also the average fruit diameter was determined.

Another assay relates to winter wheat. Put plainly: Yield increase with wheat (ear and grain parameters). The assay is classed as in vivo. The procedure: This experiment was performed on winter wheat. ABA was applied to the winter wheat in two different doses, respectively 2 and 4 gram/hectare. The dose of 2 gram was repeated in combination with 5 g/ha of histidine.
The length of the ears (expressed in mm), the number of filled spikelets, the average number of grains counted per 50 ears, and as a quality parameter also the kernel weight of 1000 […] (“1000 kernel wt”) were determined.

As for `CC1=CC(=O)CC(C)(C)[C@@]1(O)/C=C/C(C)=C/C(=O)O` [ABA, S-abscisic acid], in assay [1] (ABA 2 treatments at 1.0 g/ha, glutamine 7 treatments at 15 g/ha, measured June 25), the “Fruit diameter (mm) on June 25” value is given as 43.8 mm. Also, in assay [1] (ABA 2 treatments at 3.3 ppm wt (1.0 g/ha), glutamine 7 treatments at 50 ppm wt (15 g/ha), 300 l water/ha), the “Nr of fruits per cluster” value amounted to 0.80. Also, in the assay on winter wheat (ABA 2 g/ha), the “1000 kernel wt (gram)” value worked out at 43.6 gram, the “Ear Length (mm)” value is 75 mm, the Nr. filled spikelets turned out to be 9.9 and the “Nr. grains/50 ears” value came to 72.4. Moreover, in the assay with winter wheat (ABA 4 g/ha), the “1000 kernel wt (gram)” value is 44.8 gram, the “Ear Length (mm)” value is 78 mm, the Nr. filled spikelets worked out at 10.2 and the “Nr. grains/50 ears” value came to 84.7.

The values are drawn from patent US20130303373A1, “USE OF A COMPOSITION FOR THE INCREASE OF CROP YIELD” (GLOBACHEM, priority 2010, published 2013).
